The IC50 is the concentration needed to halve the response being measured. High values mean weaker potency in that assay, low ones greater potency in that assay.

The results in this text go back to US10370333B2 (Sanford Burnham Prebys Medical Discovery Institute, priority 2012, dated 2019).

For this test, the target named is TNAP (Homo sapiens (Human), UniProt P05186). Nature of the test: TNAP (PPi) inhibition assay, pyrophosphate as substrate. In kind it is biochemical. The method, then:
Expression plasmids containing a secreted epitope-tagged TNAP were transfected into COS-1 cells for transient expression. The medium was replaced with Opti-MEM 24 h later and serum-free media containing secreted proteins was collected 60 hours after electroporation. The medium was dialyzed against TBS containing 1 mM MgCl2 and […] (to remove phosphate) and filtered through a […] cellulose acetate filter.
To determine the inhibition selectivity for inhibitor candidates, human TNAP, PLAP or IAP were added to microtiter plates followed by addition of the substrate pNPP (0.5 mM) and activity was measured in 1 M DEA-HCl buffer, pH 9.8 or in 1 M Tris-HCl buffer, pH 7.5, containing 1 mM MgCl2 and 20 μM ZnCl2, in the presence of potential inhibitors (0-30 μM). TNAP, PLAP and IAP activities were adjusted to an approximate λA405 nm, equivalent to 1, measured after 30 min. Residual AP activity in the presence of inhibitors was expressed as percentage of the control activity. To investigate the mechanism of inhibition, double reciprocal plots of enzyme activity (expressed as mA405 nm min−1) vs. substrate concentration were constructed, in the presence of various concentrations of added inhibitors (0-30 μM). The y-axis intercepts of the 1/v vs. 1/[S] plots, were then plotted vs. [I] to graphically extract Ki values as the x-intercept in this plot. […] Inhibitors were further tested and sorted based on their kinetic properties at pH 7.4 using PPi, the relevant natural substrate of TNAP. […] Amounts of released phosphate were measured using the Biomol Green Reagent (Biomol Research Laboratories, Inc., Plymouth Meeting, Pa.).

Compound `COc1cc(Cl)c(Br)cc1S(=O)(=O)Nc1cccnc1` yielded an IC50 of less than 0.1 µM. `COc1ccc(Br)cc1S(=O)(=O)Nc1cscn1`: the IC50 was greater than 1 µM.

Compound `COc1ccc(OC)c(S(=O)(=O)Nc2cscn2)c1` registered an IC50 greater than 1 µM. `COc1ccc(Cl)cc1S(=O)(=O)Nc1cncc(-c2ccccc2C(F)(F)F)c1` showed an IC50 of 0.1 to 1 µM. The same measure for `COc1ccc(Cl)cc1S(=O)(=O)Nc1cncc(-c2ccc(O)cc2)c1`: less than 0.1 µM. As for `COc1ccc(OC)c(S(=O)(=O)Nc2ccc(Nc3ccccc3)nc2)c1`, the IC50 is greater than 1 µM. The result for `O=C(O)c1cncc(NS(=O)(=O)c2cc(Cl)ccc2OC(F)(F)F)c1` reads 0.1 to 1 µM.

As for `COc1ccc(-c2ccccc2)cc1S(=O)(=O)Nc1cccnc1` [Example I-7, 4-Methoxy-biphenyl-3-sulfonic acid pyridin-3-ylamide], the IC50 lay in the range of 0.1 to 1 µM. With `COc1ccc(-c2ccsc2)cc1S(=O)(=O)Nc1cccnc1` [Example I-8, 2-Methoxy-N-pyridin-3-yl-5-thiophen-3-yl-benzenesulfonamide], the IC50 lay within 0.1 to 1 µM.

Turning to `COc1ccc(-c2ccoc2)cc1S(=O)(=O)Nc1cccnc1` [Example I-9, 5-Furan-3-yl-2-methoxy-N-pyridin-3-yl-benzenesulfonamide], the IC50 lay within 0.1 to 1 µM.

As to `COc1ccc(-c2ccncc2)cc1S(=O)(=O)Nc1cccnc1` [Example I-10, 2-Methoxy-5-pyridin-4-yl-N-pyridin-3-yl-benzenesulfonamide], the IC50 is greater than 1 µM. The result for `COc1ccc(S(=O)(=O)Nc2cccnc2)cc1Cl` [Example I-12, 3-Chloro-4-methoxy-N-pyridin-3-yl-benzenesulfonamide] reads greater than 1 µM; that for `COc1c(Cl)cccc1S(=O)(=O)Nc1cccnc1` [Example I-13, 3-Chloro-2-methoxy-N-pyridin-3-yl-benzenesulfonamide], greater than 1 µM.

Compound `CNC(=O)c1ccc(OC)c(S(=O)(=O)Nc2cccnc2)c1` [Example I-16, 4-Methoxy-N-methyl-3-(pyridin-3-ylsulfamoyl)-benzamide] displayed an IC50 greater than 1 µM. In the case of `CCNC(=O)c1ccc(OC)c(S(=O)(=O)Nc2cccnc2)c1` [Example I-17, N-Ethyl-4-methoxy-3-(pyridin-3-ylsulfamoyl)-benzamide], the IC50 is greater than 1 µM.

In the case of `CCCNC(=O)c1ccc(OC)c(S(=O)(=O)Nc2cccnc2)c1` [Example I-18, 4-Methoxy-N-propyl-3-(pyridin-3-ylsulfamoyl)-benzamide], the IC50 was greater than 1 µM. The result for `COc1ccc(C(=O)Nc2ccccc2)cc1S(=O)(=O)Nc1cccnc1` [Example I-19, 4-Methoxy-N-phenyl-3-(pyridin-3-ylsulfamoyl)-benzamide] reads greater than 1 µM. The result for `COc1ccc(C(=O)NC2CCCCC2)cc1S(=O)(=O)Nc1cccnc1` [Example I-20, N-Cyclohexyl-4-methoxy-3-(pyridin-3-ylsulfamoyl)-benzamide] reads greater than 1 µM; that for `COCCNC(=O)c1ccc(OC)c(S(=O)(=O)Nc2cccnc2)c1` [Example I-21, 4-Methoxy-N-(2-methoxy-ethyl)-3-(pyridin-3-ylsulfamoyl)-benzamide], greater than 1 µM. The result for `COc1ccc(C(=O)N2CCN(C)CC2)cc1S(=O)(=O)Nc1cccnc1` [Example I-22, 2-Methoxy-5-(4-methyl-piperazine-1-carbonyl)-N-pyridin-3-yl-benzenesulfonamide] reads greater than 1 µM; that for `COc1ccc(C(=O)N2CCOCC2)cc1S(=O)(=O)Nc1cccnc1` [Example I-23, 2-Methoxy-5-(morpholine-4-carbonyl)-N-pyridin-3-yl-benzenesulfonamide], greater than 1 µM. As for `COc1cc(C)ccc1S(=O)(=O)Nc1cnc2ccccc2c1` [Example II-3, 2-Methoxy-4-methyl-N-quinolin-3-yl-benzenesulfonamide], the IC50 is less than 0.1 µM.

For `COc1ccc(S(=O)(=O)Nc2cnc3ccccc3c2)c(OC)c1` [Example II-4, 2,4-Dimethoxy-N-quinolin-3-yl-benzenesulfonamide], the IC50 was greater than 1 µM.
